In US11497752B2, “Compounds and uses thereof” (Foghorn Therapeutics Inc., priority 2018, dated 2022):

Experiments:
BRM = BRM (Homo sapiens, UniProt P51531); experiment: ATPase catalytic activity of BRM (ADP-Glo in vitro biochemical assay)
BRG-1 = BRG-1 (Homo sapiens, UniProt P51532); experiment: ATPase catalytic activity of BRG-1 (ADP-Glo in vitro biochemical assay)
Chain of BRG-1 (P51532 whole entry): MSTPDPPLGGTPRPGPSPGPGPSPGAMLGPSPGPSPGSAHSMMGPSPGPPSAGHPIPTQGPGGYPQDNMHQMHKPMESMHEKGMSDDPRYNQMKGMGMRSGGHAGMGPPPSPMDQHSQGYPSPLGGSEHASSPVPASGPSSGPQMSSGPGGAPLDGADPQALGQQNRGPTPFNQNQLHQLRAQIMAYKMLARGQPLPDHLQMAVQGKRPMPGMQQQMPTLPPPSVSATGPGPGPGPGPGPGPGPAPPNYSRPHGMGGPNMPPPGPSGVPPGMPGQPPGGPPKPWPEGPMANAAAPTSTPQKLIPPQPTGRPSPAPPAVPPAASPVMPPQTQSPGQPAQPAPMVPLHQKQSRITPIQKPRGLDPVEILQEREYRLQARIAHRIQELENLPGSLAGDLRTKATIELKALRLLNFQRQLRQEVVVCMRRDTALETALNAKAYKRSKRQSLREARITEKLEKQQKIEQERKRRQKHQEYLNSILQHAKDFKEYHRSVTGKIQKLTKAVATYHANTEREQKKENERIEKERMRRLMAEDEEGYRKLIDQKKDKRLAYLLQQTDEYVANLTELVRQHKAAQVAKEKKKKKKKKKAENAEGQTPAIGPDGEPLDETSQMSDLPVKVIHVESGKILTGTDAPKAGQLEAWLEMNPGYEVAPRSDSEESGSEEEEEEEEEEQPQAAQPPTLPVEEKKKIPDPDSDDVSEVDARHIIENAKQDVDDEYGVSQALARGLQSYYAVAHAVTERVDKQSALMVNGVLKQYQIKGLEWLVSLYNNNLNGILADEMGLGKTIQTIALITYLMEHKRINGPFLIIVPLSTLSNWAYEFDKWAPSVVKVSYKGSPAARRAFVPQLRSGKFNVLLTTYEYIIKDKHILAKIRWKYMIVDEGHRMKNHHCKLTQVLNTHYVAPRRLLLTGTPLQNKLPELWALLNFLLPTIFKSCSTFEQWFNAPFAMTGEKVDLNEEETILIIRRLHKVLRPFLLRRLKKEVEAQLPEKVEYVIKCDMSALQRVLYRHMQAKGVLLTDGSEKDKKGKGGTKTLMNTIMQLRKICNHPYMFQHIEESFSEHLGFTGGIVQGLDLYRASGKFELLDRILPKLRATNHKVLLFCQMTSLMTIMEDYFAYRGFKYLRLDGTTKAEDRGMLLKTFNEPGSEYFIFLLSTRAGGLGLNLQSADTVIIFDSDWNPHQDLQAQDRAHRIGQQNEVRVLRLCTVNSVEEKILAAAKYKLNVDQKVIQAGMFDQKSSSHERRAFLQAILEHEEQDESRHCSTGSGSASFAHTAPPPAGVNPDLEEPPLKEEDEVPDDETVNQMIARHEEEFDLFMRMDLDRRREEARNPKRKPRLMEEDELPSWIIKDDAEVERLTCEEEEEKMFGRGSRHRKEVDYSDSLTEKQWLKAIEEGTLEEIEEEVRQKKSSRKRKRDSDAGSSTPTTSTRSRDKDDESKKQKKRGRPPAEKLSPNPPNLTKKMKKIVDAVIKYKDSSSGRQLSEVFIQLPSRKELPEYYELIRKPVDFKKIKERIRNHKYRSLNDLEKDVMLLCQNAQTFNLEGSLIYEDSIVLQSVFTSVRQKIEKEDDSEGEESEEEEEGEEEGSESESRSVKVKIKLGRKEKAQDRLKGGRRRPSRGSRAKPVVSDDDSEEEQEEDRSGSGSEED

Chain of BRM (P51531 whole entry): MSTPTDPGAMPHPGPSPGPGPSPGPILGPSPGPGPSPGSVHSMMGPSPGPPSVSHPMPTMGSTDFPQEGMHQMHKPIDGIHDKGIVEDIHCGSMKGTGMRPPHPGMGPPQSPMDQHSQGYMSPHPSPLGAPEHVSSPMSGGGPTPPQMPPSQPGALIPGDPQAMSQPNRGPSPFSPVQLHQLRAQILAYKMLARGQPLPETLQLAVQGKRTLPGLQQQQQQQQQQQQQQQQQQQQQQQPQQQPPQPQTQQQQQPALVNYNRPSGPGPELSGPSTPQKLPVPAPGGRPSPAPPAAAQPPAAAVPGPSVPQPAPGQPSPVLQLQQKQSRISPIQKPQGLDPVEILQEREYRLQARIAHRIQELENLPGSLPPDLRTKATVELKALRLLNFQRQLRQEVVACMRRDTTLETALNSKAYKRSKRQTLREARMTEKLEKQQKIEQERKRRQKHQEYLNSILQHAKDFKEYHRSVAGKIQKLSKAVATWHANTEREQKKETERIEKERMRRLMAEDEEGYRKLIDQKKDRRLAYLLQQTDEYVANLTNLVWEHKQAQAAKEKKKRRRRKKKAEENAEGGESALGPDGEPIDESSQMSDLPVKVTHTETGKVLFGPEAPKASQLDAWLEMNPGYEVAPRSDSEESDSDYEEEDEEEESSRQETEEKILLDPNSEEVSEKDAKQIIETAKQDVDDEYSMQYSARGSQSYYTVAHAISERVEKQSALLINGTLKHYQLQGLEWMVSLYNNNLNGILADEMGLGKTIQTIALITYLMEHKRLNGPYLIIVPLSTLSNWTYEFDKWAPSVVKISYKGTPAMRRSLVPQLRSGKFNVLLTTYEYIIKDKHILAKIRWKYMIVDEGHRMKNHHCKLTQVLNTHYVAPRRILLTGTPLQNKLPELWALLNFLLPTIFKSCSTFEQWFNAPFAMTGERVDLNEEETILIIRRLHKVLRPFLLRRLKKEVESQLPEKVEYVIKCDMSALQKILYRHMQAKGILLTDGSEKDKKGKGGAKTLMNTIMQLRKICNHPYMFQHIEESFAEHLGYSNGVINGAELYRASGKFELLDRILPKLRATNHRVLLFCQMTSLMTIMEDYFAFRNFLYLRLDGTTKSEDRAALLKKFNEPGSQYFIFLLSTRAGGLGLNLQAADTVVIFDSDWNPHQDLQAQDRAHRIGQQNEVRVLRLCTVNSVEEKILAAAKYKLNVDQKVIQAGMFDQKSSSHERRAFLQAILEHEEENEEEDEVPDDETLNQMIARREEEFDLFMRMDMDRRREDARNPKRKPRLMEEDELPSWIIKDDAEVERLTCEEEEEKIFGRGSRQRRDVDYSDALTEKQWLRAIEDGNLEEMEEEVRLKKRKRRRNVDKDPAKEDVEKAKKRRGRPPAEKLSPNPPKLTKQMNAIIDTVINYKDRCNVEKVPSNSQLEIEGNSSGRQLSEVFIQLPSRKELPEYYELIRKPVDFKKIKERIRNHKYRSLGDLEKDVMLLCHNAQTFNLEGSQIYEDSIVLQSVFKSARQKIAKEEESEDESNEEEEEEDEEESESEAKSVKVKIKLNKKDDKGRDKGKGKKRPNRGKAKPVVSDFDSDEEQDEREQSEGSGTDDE

| SMILES | IC50 (BRM) | BRM Max % Inhibition (BRM; Table 6) | IC50 (BRG-1) | BRG1 Max % Inhibition (BRG-1; Table 6) | BRM Max % Inhibition (BRM; Table 5) | BRG1 Max % Inhibition (BRG-1; Table 5) |
| --- | --- | --- | --- | --- | --- | --- |
| Nc1ccc(C(=O)NCC(=O)Nc2nc(-c3cccc(-c4ccnc(N)c4)c3)cs2)cc1 [Compound 133, 4-amino-N-(2-((4-(3-(2-aminopyridin-4-yl)phenyl)thiazol-2-yl)amino)-2-oxoethyl)benzamide] | < 0.1 µM | >95% | < 0.1 µM | >95% |  |  |
| CNC(=O)CN(C)c1cc(-c2cccc(-c3csc(NC(=O)CNC(=O)c4ccc(N)cc4)n3)c2)ccn1 [Compound 202, 4-amino-N-[2-[[4-[3-[2-[methyl-[2-(methylamino)-2-oxo-ethyl]amino]-4-pyridyl]phenyl]thiazol-2-yl]amino]-2-oxo-ethyl]benzamide] | < 0.1 µM | >95% | < 0.1 µM | >95% |  |  |
| CS(=O)(=O)c1ccc(-c2cccc(-c3csc(NC(=O)CNC(=O)c4ccc(N)cc4)n3)c2)cc1 [Compound 134, 4-amino-N-(2-((4-(4′-(methylsulfonyl)-[1,1′-biphenyl]-3-yl)thiazol-2-yl)amino)-2-oxoethyl)benzamide] | 0.1 to 1 µM | >50% | 0.1 to 1 µM | >50% |  |  |
| Cc1ccc(C(=O)NCC(=O)Nc2nc(-c3ccccc3)cs2)cc1S(C)(=O)=O [Compound 19, 4-methyl-3-(methylsulfonyl)-N-(2-oxo-2-((4-phenylthiazol-2-yl)amino)ethyl)benzamide] | < 1 µM |  | > 10 µM |  | >70% | >30% |
| CSCC[C@H](NC(=O)c1cccc(S(C)(=O)=O)c1)C(=O)Nc1nc(-c2ccccc2)cs1 [Compound 3, (S)-3-(methylsulfonyl)-N-(4-(methylthio)-1-oxo-1-((4-phenylthiazol-2-yl)amino)butan-2-yl)benzamide] | 1 to 10 µM |  | 1 to 10 µM |  | >95% | >90% |
| CSCC[C@H](NC(=O)c1ccc(N)cc1)C(=O)Nc1nc(-c2cc(C#N)cc(-c3ccccc3)c2)cs1 [Compound 116, (S)-4-amino-N-(1-((4-(5-cyano-[1,1′-biphenyl]-3-yl)thiazol-2-yl)amino)-4-(methylthio)-1-oxobutan-2-yl)benzamide] | 0.1 to 1 µM | >95% | 0.1 to 1 µM | >95% |  |  |
| Nc1ccc(C(=O)NCC(=O)Nc2nc(-c3cccc(-c4cnn(CC(=O)O)c4)c3)cs2)cc1 [Compound 176, 2-(4-(3-(2-(2-(4-aminobenzamido)acetamido)thiazol-4-yl)phenyl)-1H-pyrazol-1-yl)acetic acid] | 0.1 to 1 µM | >90% | 0.1 to 1 µM | >80% |  |  |
| Nc1ccc(C(=O)NCC(=O)Nc2nc(-c3cccc(-c4ccnc(N5CCCC(N)C5)c4)c3)cs2)cc1 (stereo not shown) [Compound 221, 4-amino-N-[2-[[4-[3-[2-(3-amino-1-piperidyl)-4-pyridyl]phenyl]thiazol-2-yl]amino]-2-oxo-ethyl]benzamide] | 0.1 to 1 µM | >95% | 0.1 to 1 µM | >80% |  |  |
| CSCC[C@H](NC(=O)c1cccc(C(F)(F)F)c1)C(=O)Nc1nc(-c2ccccc2)cs1 [Compound 77, N-[(1S)-3-methylsulfanyl-1-[(4-phenylthiazol-2-yl)carbamoyl]propyl]-3-(trifluoromethyl)benzamide] | > 10 µM |  | > 10 µM |  | >30% | >30% |
| Nc1ccc(C(=O)NCC(=O)Nc2nc(-c3cccc(-c4ccc(O)cc4)c3)cs2)cc1 [Compound 139, 4-amino-N-(2-((4-(4′-hydroxy-[1,1′-biphenyl]-3-yl)thiazol-2-yl)amino)-2-oxoethyl)benzamide] | < 0.1 µM | >95% | < 0.1 µM | >95% |  |  |
